Measurements taken from patent US11931343B2 (ARCUS BIOSCIENCES, INC., priority 2018, dated 2024).

Target: T1, human CD73 (Homo sapiens, UniProt P21589)
T1 sequence (P21589 27-549): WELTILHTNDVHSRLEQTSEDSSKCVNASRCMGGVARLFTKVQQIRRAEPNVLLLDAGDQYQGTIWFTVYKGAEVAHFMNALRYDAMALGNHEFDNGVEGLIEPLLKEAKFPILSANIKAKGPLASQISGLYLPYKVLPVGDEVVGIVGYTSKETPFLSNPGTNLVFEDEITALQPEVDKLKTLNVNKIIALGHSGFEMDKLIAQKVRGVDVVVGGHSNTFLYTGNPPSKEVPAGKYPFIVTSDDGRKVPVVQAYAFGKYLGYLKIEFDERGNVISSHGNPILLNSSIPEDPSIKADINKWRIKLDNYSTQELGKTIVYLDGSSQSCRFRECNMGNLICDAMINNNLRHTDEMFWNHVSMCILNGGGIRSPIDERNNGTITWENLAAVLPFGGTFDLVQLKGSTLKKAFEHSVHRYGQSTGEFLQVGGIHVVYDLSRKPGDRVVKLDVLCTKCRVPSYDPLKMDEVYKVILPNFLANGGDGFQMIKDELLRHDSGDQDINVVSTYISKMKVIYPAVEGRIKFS
Experiment: Inhibition of Ecto-5′-nucleotidase (CD73) activity in CHO-CD73 cells, phosphate release from AMP
Type: cell-based
Conditions: CHO-K1 cells stably transfected with human CD73; 25 μM AMP; 50 minutes, 37° C.; read-out: Potency: CD73 IC50

IC50 | SMILES
100 to 1000 nM | N#Cc1ccc(Cn2nccc2-c2cc(F)c3c(N)nn(-c4ccc5cn[nH]c5c4)c3c2)cc1 [Example 389]
100 to 1000 nM | Cc1ccc(C(C)n2nccc2-c2cc(Cl)c3nnn(-c4ccc5cn[nH]c5c4)c3c2)[n+]([O-])c1 (stereo not drawn) [Example 390]
> 1000 nM | N#Cc1ccc(Cn2nccc2-c2cc3c(c[n+]2[O-])nnn3-c2ccc3[nH]c(=O)[nH]c3c2)cc1 [Example 391]
< 100 nM | Cc1ccc(Cn2nccc2-c2cc3c(cc2F)nnn3-c2ccc3cn[nH]c3c2)nc1 [Example 392]
100 to 1000 nM | Cc1cccc(-n2nccc2-c2cc3c(cc2F)nnn3-c2ccc3cn[nH]c3c2)c1 [Example 393]
> 1000 nM | Fc1cc(-c2ccnn2-c2ccc3[nH]ncc3c2)cc2c1nnn2-c1ccc2cn[nH]c2c1 [Example 394]
100 to 1000 nM | Cc1ccc(C(C)n2nccc2-c2cc(F)c3nnn(-c4ccc5cn[nH]c5c4)c3c2)nc1 (stereo not drawn) [Example 396]
100 to 1000 nM | Cc1ccc(Cn2nccc2-c2cc3c(cc2F)nnn3-c2ccc3cn[nH]c3c2)[n+]([O-])c1 [Example 397]
> 1000 nM | Cc1cc2nnn(-c3ccc4cn[nH]c4c3)c2cc1-c1ccnn1C(C)c1ccc(C#N)cc1 (stereo not drawn) [Example 398]
> 1000 nM | Cc1cc2nnn(-c3ccc4cn[nH]c4c3)c2cc1-c1ccnn1C(C)c1ccc(Cl)cn1 (stereo not drawn) [Example 399]
< 100 nM | N#Cc1ccc(Cn2nccc2-c2cc3c(cc2Cl)nnn3-c2ccc3cn[nH]c3c2)c(F)c1 [Example 400]
100 to 1000 nM | CC(c1ccc(C#N)cc1)n1nccc1-c1cc2c(cc1Cl)nnn2-c1ccc2cn[nH]c2c1 (stereo not drawn) [Example 401]
100 to 1000 nM | CC(c1ccc(Cl)cn1)n1nccc1-c1cc2c(cc1Cl)nnn2-c1ccc2cn[nH]c2c1 (stereo not drawn) [Example 402]

More lines, now with the values behind:

SMILES | IC50
N#Cc1ccc(Cn2nccc2-c2cc3c(nnn3-c3ccc4cn[nH]c4c3)[nH]c2=O)cc1 [Example 372] | 100 to 1000 nM
Fc1cc(-c2ccnn2C2CCCOC2)cc2c1nnn2-c1ccc2cn[nH]c2c1 (stereo not drawn) [Example 373] | > 1000 nM
CC(c1ccc(Cl)cn1)n1nccc1-c1cc(Cl)c2nnn(-c3ccc4cn[nH]c4c3)c2c1 (stereo not drawn) [Example 374] | 100 to 1000 nM
OC(Cn1nccc1-c1cc(F)c2nnn(-c3ccc4cn[nH]c4c3)c2c1)c1ccccc1 (stereo not drawn) [Example 375] | > 1000 nM
N#Cc1ccc(Cn2nccc2-c2cnc3c(C(F)(F)F)nn(-c4ccc5cn[nH]c5c4)c3c2)cc1 [Example 376] | > 1000 nM
CC(c1ccc(Cl)cn1)n1nccc1-c1cc(F)c2nnn(-c3ccc4cn[nH]c4c3)c2c1 (stereo not drawn) [Example 377] | 100 to 1000 nM
N#Cc1ccc(Cn2nccc2-c2cc3c(cc2F)nnn3-c2ccc3cn[nH]c3c2)cc1 [Example 378] | < 100 nM
CC(c1ccc(Cl)c[n+]1[O-])n1nccc1-c1cc(Cl)c2nnn(-c3ccc4cn[nH]c4c3)c2c1 (stereo not drawn) [Example 379] | 100 to 1000 nM
Cc1ccc(C(C)n2nccc2-c2cc(Cl)c3nnn(-c4ccc5cn[nH]c5c4)c3c2)nc1 (stereo not drawn) [Example 380] | 100 to 1000 nM
Cc1ccc(Cn2nccc2-c2cc(Cl)c3nnn(-c4ccc5cn[nH]c5c4)c3c2)[n+]([O-])c1 [Example 381] | < 100 nM
CC(c1ccc(C#N)cc1)n1nccc1-c1cc2c(cc1F)nnn2-c1ccc2cn[nH]c2c1 (stereo not drawn) [Example 382] | 100 to 1000 nM
CC(c1ccc(Cl)cn1)n1nccc1-c1cc2c(cc1F)nnn2-c1ccc2cn[nH]c2c1 (stereo not drawn) [Example 383] | 100 to 1000 nM
Cc1cc2nnn(-c3ccc4cn[nH]c4c3)c2cc1-c1ccnn1Cc1ccc(C#N)cc1 [Example 384] | 100 to 1000 nM
CC(Cn1nccc1-c1cc(F)c2nnn(-c3ccc4cn[nH]c4c3)c2c1)c1ccccc1 (stereo not drawn) [Example 385] | > 1000 nM
Cc1nn(-c2ccc3cn[nH]c3c2)c2cc(-c3ccnn3Cc3ccc(Cl)cc3)cnc12 [Example 386] | 100 to 1000 nM
CC(c1ccc(Cl)c[n+]1[O-])n1c(-c2cc3c(cc2F)nnn3-c2ccc3cn[nH]c3c2)cc[n+]1[O-] (stereo not drawn) [Example 387] | 100 to 1000 nM
Cc1ccc(F)c(-n2nccc2-c2cc(F)c3nnn(-c4ccc5cn[nH]c5c4)c3c2)c1 [Example 388] | > 1000 nM
